# Test results as given in PubChem BioAssay AID2060616 (Molecular Pharmacology Branch, DTP, NCI, 2025).
# System: 377384-186-R-J1-PDC complex spheroid viability
# Test: Anticancer human tumor 377384-186-R-J1-PDC patient-derived pancreatic carcinoma cell line growth inhibition [CLK]
# Details: for IC50: curve of first compound; for viability, T/C: stronger effect = lower value
# Method in brief: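 Multi-cell-type spheroids combined patient-derived tumor cells with HUVEC endothelial cells and human mesenchymal stem cells. Paired agents were dosed in half-log steps down from about clinical Cmax, or from 10 microM where Cmax was unknown.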
# [1] = second compound 0.0316 µM, first compound 0.0316 µM
# [2] = second compound 0.0316 µM, first compound 0.1 µM
# [3] = second compound 0.0316 µM, first compound 0.316 µM
# [4] = second compound 0.0316 µM, first compound 1 µM
# [5] = second compound 0.0316 µM, first compound 3.16 µM
# [6] = second compound 0.0316 µM, first compound 10 µM
# [7] = second compound 0.1 µM, first compound 0.0316 µM
# [8] = second compound 0.1 µM, first compound 0.1 µM
# [9] = second compound 0.1 µM, first compound 0.316 µM
# [10] = second compound 0.1 µM, first compound 1 µM
# [11] = second compound 0.1 µM, first compound 3.16 µM
# [12] = second compound 0.1 µM, first compound 10 µM
# [13] = second compound 0.316 µM, first compound 0.0316 µM
# [14] = second compound 0.316 µM, first compound 0.1 µM
# [15] = second compound 0.316 µM, first compound 0.316 µM
# [16] = second compound 0.316 µM, first compound 1 µM
# [17] = second compound 0.316 µM, first compound 3.16 µM
# [18] = second compound 0.316 µM, first compound 10 µM
# [19] = second compound 1 µM, first compound 0.0316 µM
# [20] = second compound 1 µM, first compound 0.1 µM
# [21] = second compound 1 µM, first compound 0.316 µM
# [22] = second compound 1 µM, first compound 1 µM
# [23] = second compound 1 µM, first compound 3.16 µM
# [24] = second compound 1 µM, first compound 10 µM
# [25] = second compound 3.16 µM, first compound 0.0316 µM
# [26] = second compound 3.16 µM, first compound 0.1 µM
# [27] = second compound 3.16 µM, first compound 0.316 µM
# [28] = second compound 3.16 µM, first compound 1 µM
# [29] = second compound 3.16 µM, first compound 3.16 µM
# [30] = second compound 3.16 µM, first compound 10 µM
# [31] = second compound 10 µM, first compound 0.0316 µM
# [32] = second compound 10 µM, first compound 0.1 µM
# [33] = second compound 10 µM, first compound 0.316 µM
# [34] = second compound 10 µM, first compound 1 µM
# [35] = second compound 10 µM, first compound 3.16 µM
# [36] = second compound 10 µM, first compound 10 µM
# 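Also: spheroids exposed to agents for 7 days before reading.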
# 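For viability, T/C in this document: luminescence signal used as a stand-in for viable cells.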
smiles,measurement,setting,value
C#Cc1c(F)ccc2cc(O)cc(-c3ncc4c(N5CC6CCC(C5)N6)nc(OCC56CCCN5CC(F)C6)nc4c3F)c12 (centres undefined) + CNC(=O)c1ccc(Nc2nc(OC3CCCC3)c3c(-c4ccc5nc(C)oc5c4)c[nH]c3n2)c(OC)c1,IC50,second compound 0.0316 µM,< 31.6 nM
same,IC50,second compound 0.1 µM,< 31.6 nM
same,IC50,second compound 0.316 µM,< 31.6 nM
same,IC50,second compound 1 µM,< 31.6 nM
same,IC50,second compound 3.16 µM,< 31.6 nM
same,IC50,second compound 10 µM,< 31.6 nM
same,"viability, T/C",[1],23.6%
same,"viability, T/C",[2],11.7%
same,"viability, T/C",[3],5.37%
same,"viability, T/C",[4],4.27%
same,"viability, T/C",[5],2.38%
same,"viability, T/C",[6],1.98%
same,"viability, T/C",[7],22%
same,"viability, T/C",[8],8.53%
same,"viability, T/C",[9],5.17%
same,"viability, T/C",[10],2.73%
same,"viability, T/C",[11],2.7%
same,"viability, T/C",[12],2.19%
same,"viability, T/C",[13],7.28%
same,"viability, T/C",[14],4.75%
same,"viability, T/C",[15],3.08%
same,"viability, T/C",[16],2.69%
same,"viability, T/C",[17],2.74%
same,"viability, T/C",[18],2.17%
same,"viability, T/C",[19],6.44%
same,"viability, T/C",[20],3.72%
same,"viability, T/C",[21],2.21%
same,"viability, T/C",[22],1.64%
same,"viability, T/C",[23],1.66%
same,"viability, T/C",[24],1.12%
same,"viability, T/C",[25],4.56%
same,"viability, T/C",[26],3.31%
same,"viability, T/C",[27],2.47%
same,"viability, T/C",[28],2.25%
same,"viability, T/C",[29],1.64%
same,"viability, T/C",[30],1.59%
same,"viability, T/C",[31],4.62%
same,"viability, T/C",[32],2.7%
same,"viability, T/C",[33],2.29%
same,"viability, T/C",[34],1.95%
same,"viability, T/C",[35],1.6%
same,"viability, T/C",[36],2.24%
C=C(F)C(=O)N1CCN(c2nc(OCC3CCCN3C)nc3c2CCN(c2cccc4cccc(Cl)c24)C3)CC1CC#N (centres undefined) + CNC(=O)c1ccc(Nc2nc(OC3CCCC3)c3c(-c4ccc5nc(C)oc5c4)c[nH]c3n2)c(OC)c1,IC50,second compound 0.0316 µM,2060 nM
same,IC50,second compound 0.1 µM,145 nM
same,IC50,second compound 0.316 µM,< 31.6 nM
same,IC50,second compound 1 µM,< 31.6 nM
same,IC50,second compound 3.16 µM,< 31.6 nM
same,IC50,second compound 10 µM,< 31.6 nM
same,"viability, T/C",[1],99.6%
same,"viability, T/C",[2],93.8%
same,"viability, T/C",[3],102%
same,"viability, T/C",[4],96.6%
same,"viability, T/C",[5],22.3%
same,"viability, T/C",[6],0.88%
same,"viability, T/C",[7],54.3%
same,"viability, T/C",[8],50.9%
same,"viability, T/C",[9],45.7%
same,"viability, T/C",[10],40.4%
same,"viability, T/C",[11],23.1%
same,"viability, T/C",[12],0.37%
same,"viability, T/C",[13],21.2%
same,"viability, T/C",[14],22.8%
same,"viability, T/C",[15],20.7%
same,"viability, T/C",[16],22.1%
same,"viability, T/C",[17],12%
same,"viability, T/C",[18],0.26%
same,"viability, T/C",[19],19.5%
same,"viability, T/C",[20],19.3%
same,"viability, T/C",[21],19%
same,"viability, T/C",[22],17.9%
same,"viability, T/C",[23],11.1%
same,"viability, T/C",[24],0.2%
same,"viability, T/C",[25],20.5%
same,"viability, T/C",[26],20.9%
same,"viability, T/C",[27],18.3%
same,"viability, T/C",[28],20.3%
same,"viability, T/C",[29],8.66%
same,"viability, T/C",[30],0.22%
same,"viability, T/C",[31],20.6%
same,"viability, T/C",[32],21.4%
same,"viability, T/C",[33],21.9%
same,"viability, T/C",[34],17.1%
same,"viability, T/C",[35],8.61%
same,"viability, T/C",[36],0.3%
